Source: ChEMBL document CHEMBL1158255, “New polyoxypregnane ester derivatives from Leptadenia hastata” (1996)

Key:
Format in all cases: functional
Raji [1] = assay: Antitumor activity against human Raji cells assessed as DNA synthesis at 1 ug/mL by [3H]thymidine incorporation assay relative to control
Raji [2] = assay: Cell cycle arrest in human Raji cells assessed as accumulation in S phase at 1 ug/mL
Raji [3] = assay: Antitumor activity against human Raji cells assessed as DNA synthesis at 0.5 ug/mL by [3H]thymidine incorporation assay relative to control
Raji [4] = assay: Cell cycle arrest in human Raji cells assessed as accumulation in S phase at 0.1 ug/mL
Raji [5] = assay: Cell cycle arrest in human Raji cells assessed as accumulation in S phase at 0.5 ug/mL
Raji [6] = assay: Antitumor activity against human Raji cells assessed as DNA synthesis at 0.1 ug/mL by [3H]thymidine incorporation assay relative to control

SMILES: COC1C[C@H](O[C@H]2[C@@H](OC)C[C@H](O[C@H]3[C@@H](OC)C[C@H](O[C@H]4CC[C@@]5(C)C(=CC[C@]6(O)[C@@H]5C[C@@H](OC(=O)/C=C/c5ccccc5)[C@@]5(C)[C@]6(O)CC[C@@]5(O)[C@H](C)O)C4)O[C@@H]3C)O[C@@H]2C)O[C@H](C)[C@H]1O[C@@H]1O[C@H](C)[C@@H](O[C@@H]2O[C@H](CO)[C@@H](O)[C@H](O)[C@H]2O)[C@@H](OC)[C@H]1O (single isomer, unassigned)
- Activity (Raji [1]): 16%
- Activity (Raji [2]): 10%
- Activity (Raji [3]): 33%
- Activity (Raji [4]): 33%
- Activity (Raji [5]): 18%
- Activity (Raji [6]): 59%

SMILES: COC1C[C@H](O[C@@H]2[C@@H](C)O[C@@H](O[C@H]3[C@@H](OC)C[C@H](O[C@H]4CC[C@@]5(C)C(=CC[C@]6(O)[C@@H]5C[C@@H](OC(C)=O)[C@@]5(C)[C@]6(O)CC[C@@]5(O)[C@H](C)O)C4)O[C@@H]3C)C[C@H]2OC)O[C@H](C)[C@H]1O[C@@H]1O[C@H](C)[C@@H](O[C@@H]2O[C@H](CO)[C@@H](O)[C@H](O)[C@H]2O)[C@@H](OC)[C@H]1O (single isomer, unassigned)
- Activity (Raji [1]): 65%
- Activity (Raji [2]): 18%
- Activity (Raji [3]): 89%
- Activity (Raji [4]): 34%
- Activity (Raji [5]): 30%
- Activity (Raji [6]): 98%

SMILES: CO[C@@H]1[C@@H](O)[C@H](O[C@H]2[C@@H](OC)C[C@H](O[C@H]3[C@@H](OC)C[C@H](O[C@H]4[C@@H](OC)C[C@H](O[C@H]5CC[C@@]6(C)C(=CC[C@]7(O)[C@@H]6C[C@@H](OC(=O)c6ccccc6)[C@@]6(C)[C@]7(O)CC[C@@]6(O)[C@H](C)OC(=O)/C=C/c6ccccc6)C5)O[C@@H]4C)O[C@@H]3C)O[C@@H]2C)O[C@H](C)[C@H]1O[C@@H]1O[C@H](CO)[C@@H](O)[C@H](O)[C@H]1O
- Activity (Raji [1]): 16%
- Activity (Raji [2]): 5%
- Activity (Raji [3]): 14%
- Activity (Raji [4]): 5%
- Activity (Raji [5]): 4%
- Activity (Raji [6]): 13%

SMILES: CO[C@H]1[C@@H](O)[C@H](O[C@H]2[C@@H](OC)C[C@H](O[C@H]3[C@@H](OC)C[C@H](O[C@H]4[C@@H](OC)C[C@H](O[C@H]5CC[C@@]6(C)C(=CC[C@]7(O)[C@@H]6C[C@@H](OC(=O)/C=C/c6ccccc6)[C@@]6(C)[C@]7(O)CC[C@@]6(O)C(C)=O)C5)O[C@@H]4C)O[C@@H]3C)O[C@@H]2C)O[C@H](C)[C@H]1O[C@@H]1O[C@H](CO)[C@@H](O)[C@H](O)[C@H]1O
- Activity (Raji [1]): 14%
- Activity (Raji [2]): 4%
- Activity (Raji [3]): 21%
- Activity (Raji [4]): 22%
- Activity (Raji [5]): 11%
- Activity (Raji [6]): 41%

SMILES: COC1C[C@H](O[C@H]2[C@@H](OC)C[C@H](O[C@H]3[C@@H](OC)C[C@H](O[C@H]4CC[C@@]5(C)C(=CC[C@]6(O)[C@@H]5C[C@@H](OC(C)=O)[C@@]5(C)[C@]6(O)CC[C@@]5(O)C(C)=O)C4)O[C@@H]3C)O[C@@H]2C)O[C@H](C)[C@H]1O[C@@H]1O[C@H](C)[C@@H](O[C@@H]2O[C@H](CO)[C@@H](O)[C@H](O)[C@H]2O)[C@@H](OC)[C@H]1O (single isomer, unassigned)
- Activity (Raji [1]): 69%
- Activity (Raji [2]): 26%
- Activity (Raji [3]): 87%
- Activity (Raji [4]): 30%
- Activity (Raji [5]): 28%
- Activity (Raji [6]): 98%

SMILES: COC1C[C@H](O[C@H]2[C@@H](OC)C[C@H](O[C@H]3[C@@H](OC)C[C@H](O[C@H]4CC[C@@]5(C)C(=CC[C@]6(O)[C@@H]5C[C@@H](OC(C)=O)[C@@]5(C)[C@]6(O)CC[C@@]5(O)[C@H](C)O)C4)O[C@@H]3C)O[C@@H]2C)O[C@H](C)[C@H]1O[C@@H]1O[C@H](C)[C@@H](O[C@@H]2O[C@H](CO)[C@@H](O)[C@H](O)[C@H]2O)[C@@H](OC)[C@H]1O (single isomer, unassigned)
- Activity (Raji [1]): 69%
- Activity (Raji [2]): 28%
- Activity (Raji [3]): 83%
- Activity (Raji [4]): 32%
- Activity (Raji [5]): 30%
- Activity (Raji [6]): 98%

SMILES: COC1C[C@H](O[C@@H]2[C@@H](C)O[C@@H](O[C@H]3[C@@H](OC)C[C@H](O[C@H]4CC[C@@]5(C)C(=CC[C@]6(O)[C@@H]5C[C@@H](OC(=O)/C=C/c5ccccc5)[C@@]5(C)[C@]6(O)CC[C@@]5(O)[C@H](C)OC(=O)c5ccccc5)C4)O[C@@H]3C)C[C@H]2OC)O[C@H](C)[C@H]1O[C@@H]1O[C@H](C)[C@@H](O[C@@H]2O[C@H](CO)[C@@H](O)[C@H](O)[C@H]2O)[C@@H](OC)[C@H]1O (single isomer, unassigned)
- Activity (Raji [1]): 15%
- Activity (Raji [2]): 3%
- Activity (Raji [3]): 16%
- Activity (Raji [4]): 6%
- Activity (Raji [5]): 5%
- Activity (Raji [6]): 16%

SMILES: CO[C@H]1[C@@H](O)[C@H](O[C@H]2[C@@H](OC)C[C@H](O[C@H]3[C@@H](OC)C[C@H](O[C@H]4[C@@H](OC)C[C@H](O[C@H]5CC[C@@]6(C)C(=CC[C@]7(O)[C@@H]6C[C@@H](OC(=O)c6ccccc6)[C@@]6(C)[C@]7(O)CC[C@@]6(O)[C@H](C)OC(=O)/C=C/c6ccccc6)C5)O[C@@H]4C)O[C@@H]3C)O[C@@H]2C)O[C@H](C)[C@H]1O[C@@H]1O[C@H](CO)[C@@H](O)[C@H](O)[C@H]1O
- Activity (Raji [1]): 14%
- Activity (Raji [2]): 4%
- Activity (Raji [3]): 14%
- Activity (Raji [4]): 4%
- Activity (Raji [5]): 6%
- Activity (Raji [6]): 15%
